In brackets after ≈: the same amount, converted by molar mass.
Tests used:
Assay in all cases: ≥ marks a high value that may be exact or a test limit, other limits are often not marked, values filed in µg/mL are converted to µM
[1] = tested on: Bacillus subtilis ATCC 6633
[2] = tested on: Escherichia coli ATCC 25922
[3] = tested on: Klebsiella pneumoniae ATCC 10031
[4] = tested on: Micrococcus luteus ATCC 10240
[5] = tested on: Pseudomonas aeruginosa ATCC 27853
[6] = tested on: Salmonella enterica subsp. enterica serovar Typhimurium ATCC 14028
[7] = tested on: Shigella dysenteriae ATCC 9752
[8] = tested on: Staphylococcus aureus ATCC 6538P
[9] = tested on: Staphylococcus epidermidis ATCC 12228
Bacillus subtilis = tested on: Bacillus subtilis
[10] = tested on: Candida albicans ATCC 2002
Escherichia coli ML-35p = tested on: Escherichia coli ML-35p
[11] = tested on: Pseudomonas aeruginosa PAO1
[12] = tested on: Staphylococcus aureus ATCC 25923
[13] = tested on: Staphylococcus aureus ATCC 43300
[14] = tested on: Candida albicans ATCC 10231
[15] = tested on: Cryptococcus neoformans ATCC 32045
[16] = tested on: Escherichia coli ATCC 2592
[17] = tested on: Pseudomonas aeruginosa ATCC 10145
[18] = tested on: Staphylococcus aureus ATCC 33591
[19] = tested on: Acinetobacter baumannii ATCC 19606
[20] = tested on: Candida albicans ATCC 90028
[21] = tested on: Cryptococcus neoformans ATCC 208821
[22] = tested on: Klebsiella pneumoniae ATCC 700603

## CC(C)C[C@H](NC(=O)[C@H](Cc1c[nH]c2ccccc12)NC(=O)[C@H](CCCCN)NC(=O)[C@H](Cc1ccccc1)NC(=O)[C@H](C)NC(=O)[C@H](Cc1c[nH]c2ccccc12)NC(=O)[C@H](CCCCN)NC(=O)[C@H](C)NC(=O)[C@@H](N)Cc1ccccc1)C(=O)N[C@@H](CCCCN)C(=O)N[C@@H](CCCCN)C(N)=O [FAKWAFKWLKK]
[1]
  MIC: 4.34 µM (≈ 6.3 µg/mL)
[2]
  MIC: 8.6 µM (≈ 12.5 µg/mL)
[3]
  MIC: 4.34 µM (≈ 6.3 µg/mL)
[4]
  MIC: 4.34 µM (≈ 6.3 µg/mL)
[5]
  MIC: 8.6 µM (≈ 12.5 µg/mL)
[6]
  MIC: 17.2 µM (≈ 25 µg/mL)
[7]
  MIC: 8.6 µM (≈ 12.5 µg/mL)
[8]
  MIC: 4.34 µM (≈ 6.3 µg/mL)
[9]
  MIC: 4.34 µM (≈ 6.3 µg/mL)

## CC(C)C[C@H](NC(=O)[C@H](C)NC(=O)CNC(=O)[C@H](Cc1ccccc1)NC(=O)[C@H](CC(C)C)NC(=O)[C@H](CC(C)C)NC(=O)[C@@H]1CCCN1C(=O)[C@H](Cc1ccccc1)NC(=O)[C@@H](N)Cc1ccccc1)C(=O)N[C@@H](CO)C(=O)N[C@@H](CO)C(=O)N[C@@H](Cc1cnc[nH]1)C(=O)N[C@@H](CC(C)C)C(=O)N1CCC[C@H]1C(=O)N[C@@H](CCCCN)C(=O)N[C@@H](CC(C)C)C(=O)N[C@@H](Cc1ccccc1)C(N)=O [FFPLLFGALSSHLPKLF]
Bacillus subtilis
  MIC: 3.88 µM (≈ 7.5 µg/mL)
[10]
  MIC: 1.94 µM (≈ 3.75 µg/mL)
Escherichia coli ML-35p
  MIC: 7.75 µM (≈ 15 µg/mL)
[5]
  MIC: 1.94 µM (≈ 3.75 µg/mL)
[11]
  MIC: 1.94 µM (≈ 3.75 µg/mL)
[12]
  MIC: 1.94 µM (≈ 3.75 µg/mL)
[13]
  MIC: 3.88 µM (≈ 7.5 µg/mL)

## CC[C@H](C)[C@H](NC(=O)CNC(=O)[C@H](Cc1c[nH]c2ccccc12)NC(=O)[C@H](CS)NC(=O)[C@H](CO)NC(=O)[C@@H](NC(=O)[C@H](CCC(N)=O)NC(=O)[C@H](Cc1ccccc1)NC(=O)[C@@H]1CCCN1C(=O)[C@@H]1CCCN1C(=O)[C@H](CCCN=C(N)N)NC(=O)[C@H](CCCCN)NC(=O)[C@H](Cc1c[nH]c2ccccc12)NC(=O)[C@@H](NC(=O)[C@H](CCCCN)NC(=O)[C@@H](N)Cc1ccccc1)[C@@H](C)O)[C@@H](C)O)C(=O)N[C@H](C(=O)N[C@@H](CCCCN)C(=O)N[C@@H](CCC(=O)O)C(=O)O)[C@@H](C)CC [FKTWKRPPFQTSCWGIIKE]
Bacillus subtilis
  MIC: ≥ 46.8 µM
[10]
  MIC: 5.84 µM (≈ 13.8 µg/mL)
Escherichia coli ML-35p
  MIC: ≥ 46.8 µM
[5]
  MIC: 23.4 µM (≈ 55 µg/mL)
[11]
  MIC: 23.4 µM (≈ 55 µg/mL)
[12]
  MIC: 11.7 µM (≈ 27.5 µg/mL)
[13]
  MIC: 23.4 µM (≈ 55 µg/mL)

## C[C@H](NC(=O)[C@H](Cc1ccccc1)NC(=O)[C@H](CCCCN)NC(=O)[C@H](CCCCN)NC(=O)[C@H](C)NC(=O)[C@H](Cc1ccccc1)NC(=O)[C@H](CCCCN)NC(=O)[C@H](CCCCN)NC(=O)[C@H](C)NC(=O)[C@H](Cc1ccccc1)NC(=O)[C@H](CCCCN)NC(=O)[C@H](CCCCN)NC(=O)[C@H](C)NC(=O)[C@H](Cc1ccccc1)NC(=O)[C@H](CCCCN)NC(=O)[C@H](CCCCN)NC(=O)[C@H](C)NC(=O)[C@H](Cc1ccccc1)NC(=O)[C@H](CCCCN)NC(=O)[C@H](CCCCN)NC(=O)[C@H](C)NC(=O)[C@H](Cc1ccccc1)NC(=O)[C@@H](N)CCCCN)C(=O)N[C@@H](CCCCN)C(=O)O [KFAKKFAKKFAKKFAKKFAKKFAK]
[14]
  MIC: 34.9 µM (≈ 100 µg/mL)
[15]
  MIC: 7.9 µM (≈ 22.6 µg/mL)
[16]
  MIC: 3.95 µM (≈ 11.3 µg/mL)
[17]
  MIC: 5.58 µM (≈ 16 µg/mL)
[18]
  MIC: ≥ 61.7 µM

## C[C@H](NC(=O)[C@H](Cc1ccccc1)NC(=O)[C@H](CCCCN)NC(=O)[C@H](CCCCN)NC(=O)[C@H](C)NC(=O)[C@H](Cc1ccccc1)NC(=O)[C@@H](N)CCCCN)C(=O)N[C@@H](CCCCN)C(=O)O [KFAKKFAK]
[14]
  MIC: > 258 µM
[15]
  MIC: ≥ 258 µM
[16]
  MIC: ≥ 258 µM
[17]
  MIC: ≥ 258 µM
[18]
  MIC: ≥ 258 µM

## CC(C)C[C@H](NC(=O)[C@H](CCCCN)NC(=O)[C@H](CC(C)C)NC(=O)[C@H](CCCCN)NC(=O)[C@H](CC(C)C)NC(=O)[C@H](CCCCN)NC(=O)[C@H](CC(C)C)NC(=O)[C@H](CCCCN)NC(=O)[C@H](CC(C)C)NC(=O)[C@H](CCCCN)NC(=O)[C@H](CC(C)C)NC(=O)[C@H](CCCCN)NC(=O)[C@@H](N)CC(C)C)C(=O)N[C@@H](CCCCN)C(=O)O [LKLKLKLKLKLKLK]
[14]
  MIC: 207 µM (≈ 354 µg/mL)
[15]
  MIC: 1.66 µM (≈ 2.83 µg/mL)
[16]
  MIC: 30.9 µM (≈ 52.8 µg/mL)
[17]
  MIC: ≥ 73.2 µM
[18]
  MIC: ≥ 207 µM

## CC(C)C[C@H](NC(=O)[C@H](CCCN=C(N)N)NC(=O)[C@H](CC(C)C)NC(=O)[C@H](CCCN=C(N)N)NC(=O)[C@H](CC(C)C)NC(=O)[C@H](CCCN=C(N)N)NC(=O)[C@H](CC(C)C)NC(=O)[C@H](CCCN=C(N)N)NC(=O)[C@H](CC(C)C)NC(=O)[C@H](CCCN=C(N)N)NC(=O)[C@H](CC(C)C)NC(=O)[C@H](CCCN=C(N)N)NC(=O)[C@H](CC(C)C)NC(=O)[C@H](CCCN=C(N)N)NC(=O)[C@H](CC(C)C)NC(=O)[C@H](CCCN=C(N)N)NC(=O)[C@@H](N)CC(C)C)C(=O)N[C@@H](CCCN=C(N)N)C(=O)O [LRLRLRLRLRLRLRLRLR]
[14]
  MIC: 145 µM (≈ 354 µg/mL)
[15]
  MIC: ≥ 36 µM
[16]
  MIC: ≥ 51.2 µM
[17]
  MIC: ≥ 102 µM
[18]
  MIC: ≥ 72.4 µM

## NC(N)=NCCC[C@H](NC(=O)[C@H](CCCN=C(N)N)NC(=O)[C@H](CS)NC(=O)[C@H](CCCN=C(N)N)NC(=O)[C@H](Cc1cnc[nH]1)NC(=O)[C@H](CO)NC(=O)[C@H](CCCN=C(N)N)NC(=O)[C@H](CS)NC(=O)[C@H](CS)NC(=O)[C@H](CCCN=C(N)N)NC(=O)[C@H](Cc1cnc[nH]1)NC(=O)[C@H](Cc1cnc[nH]1)NC(=O)[C@@H](N)CO)C(=O)O [SHHRCCRSHRCRR]
[19]
  MIC: > 18.9 µM
[20]
  MIC: 18.9 µM (≈ 32 µg/mL)
[21]
  MIC: 4.72 µM (≈ 8 µg/mL)
[2]
  MIC: > 18.9 µM
[22]
  MIC: > 18.9 µM
[5]
  MIC: > 18.9 µM
[13]
  MIC: 18.9 µM (≈ 32 µg/mL)

## CC(C)C[C@H](NC(=O)[C@H](CCCN=C(N)N)NC(=O)[C@@H]1CCCN1C(=O)[C@H](CCCN=C(N)N)NC(=O)[C@H](Cc1cnc[nH]1)NC(=O)[C@H](Cc1cnc[nH]1)NC(=O)[C@@H](N)CO)C(=O)N[C@@H](Cc1ccccc1)C(=O)N[C@@H](Cc1cnc[nH]1)C(=O)N[C@@H](CCCN=C(N)N)C(=O)N[C@@H](Cc1cnc[nH]1)C(=O)N[C@@H](CCCN=C(N)N)C(=O)N[C@@H](Cc1cnc[nH]1)C(=O)O [SHHRPRLFHRHRH]
[19]
  MIC: > 18 µM
[20]
  MIC: 18 µM (≈ 32 µg/mL)
[21]
  MIC: 18 µM (≈ 32 µg/mL)
[2]
  MIC: > 18 µM
[22]
  MIC: > 18 µM
[5]
  MIC: > 18 µM
[13]
  MIC: > 18 µM

## CC(C)C[C@H](NC(=O)[C@H](CCCN=C(N)N)NC(=O)[C@@H]1CCCN1C(=O)[C@H](CCCN=C(N)N)NC(=O)[C@H](Cc1cnc[nH]1)NC(=O)[C@H](Cc1cnc[nH]1)NC(=O)[C@@H](N)CO)C(=O)N[C@@H](Cc1ccccc1)C(=O)N[C@@H](Cc1cnc[nH]1)C(=O)N[C@@H](CCCN=C(N)N)C(=O)N[C@@H](CCCN=C(N)N)C(=O)N[C@@H](CCCN=C(N)N)C(=O)N[C@@H](Cc1cnc[nH]1)C(=O)O [SHHRPRLFHRRRH]
[19]
  MIC: > 17.9 µM
[20]
  MIC: 17.9 µM (≈ 32 µg/mL)
[21]
  MIC: 17.9 µM (≈ 32 µg/mL)
[2]
  MIC: > 17.9 µM
[22]
  MIC: > 17.9 µM
[5]
  MIC: > 17.9 µM
[13]
  MIC: > 17.9 µM

## CC[C@H](C)[C@H](NC(=O)[C@H](C)NC(=O)[C@@H](NC(=O)[C@@H](NC(=O)[C@H](CCCCN)NC(=O)[C@@H](NC(=O)[C@H](CCCCN)NC(=O)[C@H](CC(=O)O)NC(=O)[C@H](CCCN=C(N)N)NC(=O)[C@@H](NC(=O)[C@@H](N)CO)[C@@H](C)CC)[C@@H](C)CC)[C@@H](C)O)[C@@H](C)CC)C(=O)N[C@@H](CC(=O)O)C(=O)N[C@@H](CC(C)C)C(=O)N[C@@H](C)C(=O)N[C@@H](CCCCN)C(=O)N[C@@H](CO)C(=O)N[C@@H](C)C(=O)NCC(=O)N[C@H](C(=O)NCC(=O)N[C@H](C(=O)N[C@@H](CC(C)C)C(=O)N[C@@H](CCCCN)C(=O)N[C@H](C(=O)N[C@@H](CC(C)C)C(=O)N[C@H](C(=O)N[C@H]1CSSC[C@@H](C(=O)O)NC(=O)[C@H](CO)NC(=O)[C@H](CCCCN)NC(=O)[C@H](CC(N)=O)NC(=O)[C@H](CC(C)C)NC(=O)[C@H](CCCCN)NC1=O)[C@@H](C)CC)[C@@H](C)O)C(C)C)[C@@H](C)O [SIRDKIKTIAIDLAKSAGTGVLKTLICKLNKSC]
Bacillus subtilis
  MIC: 5.35 µM (≈ 18.7 µg/mL)
[10]
  MIC: 5.35 µM (≈ 18.7 µg/mL)
Escherichia coli ML-35p
  MIC: 7.14 µM (≈ 25 µg/mL)
[12]
  MIC: 4.28 µM (≈ 15 µg/mL)
[13]
  MIC: 3.57 µM (≈ 12.5 µg/mL)

Source: DBAASP
